From patent publication US20240245783A1, “METALLO-BETA-LACTAMASE INHIBITOR” (priority 2021, published 2024) come the findings set out here.

The subject of assay [1] is IMP-1-expressing E. coli. Put plainly: Susceptibility of IMP-1-expressing E. coli to meropenem (Test Example 5). The following applies: compound at 25 μM; meropenem diluted from 2 μM; turbidity 655 nm after one day. Type of assay: cell-based. The procedure: Based on the description of NON PATENT LITERATURE 5, IMP-1-expressing E. coli was prepared.
The effects of DTPA-cefalexin and NOTA-cefalexin on the susceptibility of IMP-1-expressing E. coli to a carbapenem antibacterial agent (meropenem) were evaluated by the following method. The IMP-1-expressing E. coli was cultured overnight with shaking in LB medium containing 100 μg/ml ampicillin. The bacterial solution was diluted to 1/200 with LB medium, used as a test bacterial solution, and then seeded in a 96-well plate. Meropenem (Wako Pure Chemical Industries, Ltd.) was added to the bacterial solution, thereby performing two-step dilution from a maximum of 2 μM. The bacteria were cultured in an incubator at 37° C. for one day, and the growth at that time was measured by turbidity (655 nm). FIGS. 8 and 9 depict the results.
FIG. 8 depicts the susceptibility to meropenem when DTPA-cefalexin was added at 25 μM, or EDTA or DTPA was added at 25 μM. FIG. 9 depicts susceptibility to meropenem when NOTA-cefalexin was added at 25 μM. Those denoted as “control” in the figure show the results of adding only meropenem.

In assay [2] the target is T1, recombinant metallo-β-lactamase (recombinant IMP-1) (Serratia marcescens, UniProt P52699).
T1 construct: made in house; host or cells: E. coli BL21(DE3), vector pET29a
Put plainly: Inhibition of meropenem degradation by recombinant IMP-1 (Test Example 1). In kind it is biochemical. The following applies: compound at 1, 5, and 10 μM; 100 μM meropenem; 1 hour at 37° C.; tandem mass spectrometry. How it is done: Based on the description of NON PATENT LITERATURE 5, a recombinant metallo-β-lactamase (recombinant IMP-1) was prepared. “NG_049172” of Database: RefSeq as the IMP-1 gene was incorporated into vector pET29a (Novagen), and then expressed in E. coli BL21(DE3) (Invitrogen).
Recombinant IMP-1 was dissolved in a 50 mM sodium phosphate buffer (pH 7.6) at a concentration of 0.25 μg/ml. Furthermore, zinc chloride was added to the solution in such a manner that the concentration was 0.1 μM. The resultant in this state was subjected to preincubation at 37° C. for 10 minutes. […] After 1 hour of incubation at 37° C. residual meropenem was quantified by tandem mass spectrometry. Meropenem was quantified by a multiple reaction monitoring method. […]
Reverse phase column: YMC-Triat C18 Plus column (2.1×50 mm); column temperature: 45° C.; mobile phase (2 liquids): mobile phase A (0.1% formic acid aqueous solution), mobile phase B (acetonitrile); gradient: increase from 1% B to 80% B for 10 minutes, keep it at 80% B for 0.5 minutes, and then return it to 1% B over 1 minute. […] Detection: multiple reaction monitoring, parent ion at 384.2, child ion at 68.1; measured in a positive ion mode.
FIG. 4 depicts a graph showing the results of quantifying the peak area of meropenem detected in FIG. 3. The peak of meropenem alone is expressed as 100%.

In assay [3] the test system is IMP-1-expressing Klebsiella pneumoniae. Put plainly: Survival of Leukopenia mice infected with IMP-1-expressing Klebsiella pneumoniae (Test Example 6). In kind it is in vivo. The following applies: meropenem 10 mg/kg and compound 1 50 mg/kg subcutaneously 30 min after infection; 48 hours; Leukopenia ddY mice. The procedure: DTPA-conjugated cefalexin (compound 1)'s effect of enhancing the drug susceptibility of pathogenic bacteria was examined by an in vivo experiment using bacteria-infected mice. To prepare a compromised Leukopenia mouse model, 0.1 mL of cyclophosphamide monohydrate (Sigma-Aldrich) prepared with PBS was administered intraperitoneally to 4-week-old male ddY mice (Japan SLC) at 250 mg/kg at 4 days before infection. IMP-1-expressing Klebsiella pneumoniae used herein was a clinical isolate provided by Kumamoto University Hospital. The bacteria were cultured overnight with shaking in LB medium at 37° C., then diluted 50-fold with LB medium, and further cultured with shaking, so that the turbidity (600 nm) was 1.5 or higher. The bacteria were centrifuged to remove the medium, washed twice with PBS, and then diluted with PBS to 5×10^5 CFU/mL. In the mouse infection experiment, each Leukopenia mouse was infected with 0.1 mL (5×10^4 CFU) of IMP-1-expressing Klebsiella pneumoniae by intraperitoneal injection. Thirty minutes after infection, 0.1 mL of a mixed solution containing meropenem (Wako Pure Chemical Industries, Ltd.) and compound 1 (DTPA-CEF) was subcutaneously administered to each mouse of a treatment mouse group at 10 mg/kg and 50 mg/kg, respectively. […] Forty-eight hours after infection, mice were assessed for viability. […]

For assay [4], the system named is E. coli clinical isolate expressing IMP-1. Put plainly: Meropenem MIC against E. coli clinical isolate expressing IMP-1 (Test Example 10). Type of assay: cell-based. The procedure:
The enhancing effect of DTPA-ADCA on the susceptibility of E. coli clinical isolate expressing IMP-1 to a carbapenem antibacterial agent (meropenem) was evaluated by the following method. The E. coli clinical isolate was cultured overnight with shaking in LB medium. The bacterial solution was diluted to 1/1000 with LB medium, used as a test bacterial solution, and then seeded in a 96-well plate. Meropenem (Wako Pure Chemical Industries, Ltd.) was added to the bacterial solution, thereby performing two-step dilution from a maximum of 10 μg/ml. The bacteria were cultured in an incubator at 37° C. for one day, and growth at that time was measured by turbidity (655 nm). The meropenem concentration at which no bacterial growth had been observed was defined as the minimum inhibitory concentration.
The effect of DTPA-ADCA on the susceptibility of an E. coli clinical isolate to meropenem was evaluated by the following method. The E. coli clinical isolate was cultured overnight with shaking in LB medium. The bacterial solution was diluted to 1/1000 with LB medium, used as the test bacterial solution, and then seeded in a 96-well plate. Meropenem (Wako Pure Chemical Industries, Ltd.) was added to this bacterial solution in the range of 0.1 μg/ml to 0.005 μg/ml. Here, DTPA or DTPA-ADCA was used in combination therewith at a concentration of […], and the effect on bacterial growth was examined. The bacteria were cultured in an incubator at 37° C. for one day, and the growth at that time was measured by turbidity (655 nm).
FIG. 20 depicts the results. Multidrug-resistant E. coli was cultured with compounds having the indicated concentrations and the bacterial load was assessed by turbidity after 24 hours. […] Combined use of DTPA-ADCA (20 μM) reduced the minimum inhibitory concentration of meropenem to […] and enhanced the antibacterial activity by 100 times.

Where [5] appears, read: combined use of DTPA-ADCA (20 μM).

T1 sequence (P52699 19-246 limits assumed): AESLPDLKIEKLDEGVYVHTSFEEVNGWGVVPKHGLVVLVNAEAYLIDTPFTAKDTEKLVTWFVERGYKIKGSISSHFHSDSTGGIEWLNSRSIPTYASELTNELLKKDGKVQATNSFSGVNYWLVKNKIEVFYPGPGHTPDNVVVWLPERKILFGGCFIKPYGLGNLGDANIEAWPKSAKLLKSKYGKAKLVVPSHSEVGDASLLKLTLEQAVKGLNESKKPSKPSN

Turning to `CC1=C(C(=O)O)N2C(=O)[C@@H](NC(=O)C(NC(=O)CN(CCN(CCN(CC(=O)O)CC(=O)O)CC(=O)O)CC(=O)O)c3ccccc3)[C@H]2SC1` (stereo partly shown) [compound 1, DTPA-conjugated cefalexin], the “effect on susceptibility of IMP-1-expressing E. coli to meropenem” value in assay [1] is “metallo-β-lactamase-expressing bacteria are killed by the effect of the carbapenem antibacterial agent”. The “inhibition of meropenem degradation by IMP-1 (residual meropenem)” value in assay [2] is “inhibited the degradation of meropenem”. In addition, the percent survival in assay [3] amounted to 50%.
Consider `CC1=C(C(=O)O)N2C(=O)[C@@H](NC(=O)CN(CCN(CCN(CC(=O)O)CC(=O)O)CC(=O)O)CC(=O)O)[C@H]2SC1` [compound 6, DTPA-conjugated ADCA], for which, in assay [4] (setting [5]), the “enhancement of the antibacterial activity of meropenem” value is on record as 100 times and the “minimum inhibitory concentration of meropenem” value was determined as 10 µg/mL.
Turning to `CC1=C(C(=O)O)N2C(=O)[C@@H](NC(=O)[C@H](NC(=O)CN3CCN(CC(=O)O)CCN(CC(=O)O)CC3)c3ccccc3)[C@H]2SC1` [compound 7, NOTA-Conjugated Cefalexin], in assay [1], the “effect on susceptibility of IMP-1-expressing E. coli to meropenem” value is recorded as “metallo-β-lactamase-expressing bacteria are killed by the effect of the carbapenem antibacterial agent”.
With `O=C(O)CN(CCN(CC(=O)O)CC(=O)O)CCN(CC(=O)O)CC(=O)O` [DTPA, reference compound], the “effect on the minimum inhibitory concentration of meropenem” value in assay [4] (DTPA used in combination with meropenem) is recorded as “had no such effect”.
